The subject of assay [1] is Klebsiella pneumoniae ATCC 49619. Kind of assay: MIC determination. Format: cell-based. As to conditions: K. pneumoniae; 18 h. Here is the method: (§1) Wild-type Escherichia coli K-12 AG100 strain [argE3 thi-1 rpsL xyl mtl Δ(gal-uvrB) supE44] expressing the AcrAB TolC efflux pump at its basal level and Klebsiella pneumoniae ATCC 49619 Gram-negative strains were studied in the experiments. Sensitive (ATCC 25928) and the methicillin-resistant (MRSA 272123) subspecies of Staphylococcus aureus were used as Gram-positive strains in the assays.
(§2) Minimum inhibitory concentration (MIC) values of selected compounds were determined in 96-well plates based on the Clinical and Laboratory Standard Institute guidelines (CLSI guidelines). The stock solutions of the compounds were dissolved in DMSO using 1.3 μL of Mueller Hinton Broth, and then two-fold serial dilutions were performed. The starting concentration of the compounds was 100 μM. Then 10^‒4 dilution of an overnight bacterial culture in 100 μL of medium was added to each well, except for the medium control wells.

Assay [2] relates to Escherichia coli K-12 AG100. Kind of assay: MIC determination. As to conditions: E. coli; 18 h. The class given is cell-based. How it is done:
as §1, §2

Another assay concerns calf thymus DNA (ctDNA). Kind of assay: ctDNA thermal denaturation. Format: binding. As to conditions: for ΔTm: equimolar amounts of compound and DNA, HEPES 0.01 M, pH 7.4; for melting temperature Tm of ctDNA with compound: equimolar mixtures (25 µM), 10 mM HEPES pH 7.4, 1.5% DMSO. From the text: Nucleic acids are potential targets for metallodrugs and, consequently, evaluation of the interactions of the compounds with DNA and corresponding binding strength is relevant under the scope of this work. Thermal denaturation is a useful technique to measure the stability of the secondary structure of DNA (29). Under the chosen experimental conditions (HEPES, 0.01 M, pH 7.4), it is possible to follow the denaturation of calf thymus DNA (ctDNA) double strand.

Assay [3] deals with bovine serum albumin (BSA) (Bos taurus, UniProt P02769). As to the kind of experiment: BSA fluorescence quenching. On the set-up: Affinity constant K ± SD: unit not given here. The conditions noted are these: for Affinity constant K ± SD: fluorescence quenching, HypSpec2014, 1:1 species assumed. The class given is binding. How it is done:
To evaluate the interaction of the compounds, both organic and Cu(II) complexes, with bovine serum albumin (BSA) fluorescence spectra were measured. In a typical fluorescence experiment, to a solution of 1.5 μM of BSA in the same buffer, successive aliquots of a stock solution of each compound in DMSO were added directly to the cuvette (optical path 1.0 cm). The fluorescence emission was recorded between 310 and 600 nm with excitation at 295 nm. The final DMSO % was kept below 2% (v/v). The Stern-Volmer plots were built using the emission at 340 nm and blank samples (in the absence of BSA) with the same concentration of the complexes were recorded and subsequently subtracted from the corresponding emission spectra containing the fluorophore. Moreover, the fluorescence emission intensity was corrected for reabsorption and inner filter effects using UV-Vis absorption data recorded for each sample, since all complexes absorb in the measured wavelength range (19, 20).
The interaction of the organic compounds and Cu(II) complexes with BSA was monitored by studying the quenching of albumin’s fluorescence emission with increasing concentrations of the complexes (25). Overall, the intensity of the Trp emission decreases with the addition of the complexes, except for 8 (see Figs. S19). The Stern-Volmer relationship was used to analyse the fluorescence quenching process:
where I0 and I are the fluorescence intensities in the absence and in the presence of quencher, kq is the bimolecular quenching rate, τ0 is the fluorophore lifetime in the absence of the quencher (6.22 ns) (26) and [Q] is the quencher concentration. […] This linear relationship is obeyed for all complexes except 5, where a downward curvature is observed. This can be an indication of two distinct binding sites, corresponding to two populations of fluorophores, one being accessible and other inaccessible or buried inside the protein. In such cases, the Stern-Volmer relation can be modified to (27):
where ΔI = I0 – I, Ka is the Stern-Volmer constant for the accessible fraction and fa is the fraction of accessible fluorophore. […] As first approximation, the total concentration of quencher was used to check the quenching mechanism. […] As all systems presented high absorbance values in the measured range of wavelengths, no excess of quencher was used and, therefore, 1:1 species will be assumed for these interactions.

Another assay relates to S. aureus ATCC 25928. Kind of assay: MIC determination. The class given is cell-based, Staphylococcus aureus. The conditions noted are these: S. aureus ATCC 25928 (sensitive); 18 h. How it is done:
as §1, §2

In the next assay the test system is A-549 cells. Kind of assay: Sulforhodamine B (SRB) cell viability assay. Format: cell-based. The conditions noted are these: 72 h.
Another assay relates to A-375 cells. As to the kind of experiment: Sulforhodamine B (SRB) cell viability assay. The class given is cell-based. As to conditions: 72 h.

Sequence of bovine serum albumin (BSA) (P02769 25-607): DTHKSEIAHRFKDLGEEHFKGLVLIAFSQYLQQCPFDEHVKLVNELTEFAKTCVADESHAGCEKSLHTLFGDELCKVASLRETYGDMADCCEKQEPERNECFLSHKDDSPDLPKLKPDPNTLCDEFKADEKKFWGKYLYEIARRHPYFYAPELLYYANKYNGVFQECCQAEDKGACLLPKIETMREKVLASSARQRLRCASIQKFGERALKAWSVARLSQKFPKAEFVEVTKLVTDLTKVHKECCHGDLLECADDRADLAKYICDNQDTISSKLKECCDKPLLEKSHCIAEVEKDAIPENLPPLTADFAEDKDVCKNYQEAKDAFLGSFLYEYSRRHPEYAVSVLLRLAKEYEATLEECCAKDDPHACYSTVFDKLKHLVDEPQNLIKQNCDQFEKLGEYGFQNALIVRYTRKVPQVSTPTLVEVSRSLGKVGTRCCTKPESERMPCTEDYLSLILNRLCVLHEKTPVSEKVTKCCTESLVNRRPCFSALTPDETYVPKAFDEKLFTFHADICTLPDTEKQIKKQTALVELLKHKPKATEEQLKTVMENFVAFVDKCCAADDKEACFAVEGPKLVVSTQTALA

What is called MIC is the lowest concentration found to suppress growth. By ΔTm is commonly meant the shift of the melting midpoint relative to a reference. For orientation: IC50 means the concentration needed to halve the response being measured. In the case of `CC(=O)[O-].O=C(NN=Cc1ccc2cccc([O-])c2n1)c1ccccc1.[Cu+2]` [Complex 1, [Cu(HL^1)(AcO)]], the figures for the MIC (in assay [1]; in assay [2]; with S. aureus ATCC 25928) were more than 100 µM, more than 100 µM and 50 µM, respectively. Besides, the shift in melting temperature (ΔTm) with calf thymus DNA (ctDNA) is more than 25.0 °C. Besides, the “Affinity constant K ± SD” value in assay [3] is listed as “(8.4 ± 6.6) × 10^7”. Besides, the IC50 in the assay with A-549 cells was 4.2 ± 0.2 µM; in the assay on A-375 cells, 2.7 ± 0.03 µM.

Turning to `[Cu+2].[O-]C(=NN=Cc1ccc2cccc([O-])c2n1)c1ccc(F)cc1` [Complex 3, [Cu(L^3)]3], the MIC in assay [1] is more than 100 µM; in assay [2] it was more than 100 µM; against S. aureus ATCC 25928, 100 µM. The ΔTm with calf thymus DNA (ctDNA) was 13.0 °C. Further, the “melting temperature Tm of ctDNA with compound” value in the assay with calf thymus DNA (ctDNA) is 73.2 ± 1.7 °C. For the same compound, in assay [3], the “Affinity constant K ± SD” value was “(3.4 ± 0.7) × 10^5”. For the same compound, the IC50 in the assay with A-549 cells amounted to 8.9 ± 0.2 µM; in the assay with A-375 cells it was 5.1 ± 0.3 µM.

For the compound `COc1ccc(C([O-])=NN=Cc2ccc3cccc([O-])c3n2)cc1.[Cu+2]` [Complex 5, [Cu(L^5)]3], the MIC was more than 100 µM in assay [1], more than 100 µM in assay [2] and 100 µM against S. aureus ATCC 25928. In the assay with calf thymus DNA (ctDNA), the ΔTm turned out to be 17.7 °C. Also, the “melting temperature Tm of ctDNA with compound” value with calf thymus DNA (ctDNA) worked out at 77.9 ± 1.3 °C. The “Affinity constant K ± SD” value in assay [3] is reported as “(1.05 ± 0.04) × 10^5”. In addition, the “Stern-Volmer constant for the accessible fraction Ka” value in assay [3] (modified Stern-Volmer) was 2.1e+06 M⁻¹. The “fraction of accessible fluorophore fa” value in assay [3] (modified Stern-Volmer) worked out at 0.24. For the same compound, the results for the IC50 in the assay with A-549 cells and in the assay with A-375 cells were 5.1 ± 0.01 µM and 3.4 ± 0.1 µM, respectively.
